Results on one molecule are retold here after patent publication US8921348B2, “Optimizing mifepristone levels in plasma serum of patients suffering from mental disorders treatable with glucocorticoid receptor antagonists” (Corcept Therapeutics, priority 2007, dated 2014).

Structures are written as SMILES. A value given as a limit tells only on which side of the number the result lay.

Data set [1] can be described thus: Mifepristone blood serum/plasma level after the same dose in different patients. Conditions: same dose of mifepristone. The format is in vivo, human. Here is the method: In some embodiments, the assay can be performed as follows. Blood is collected from a patient in a vacutainer containing sodium heparin. The blood is centrifuged and the resulting plasma frozen at an appropriate temperature until assay. In some embodiments, the temperature is about −70° C. In other embodiments, other blood components can be collected and stored. Prior to analysis, the plasma is thawed and a fraction of the plasma is mixed with an internal standard in a solvent such as acetonitrile, to obtain a fixed concentration of the standard. In some embodiments, the internal standard can be mifepristone-d4. The concentration of the internal standard is selected in order to be greater than the expected concentration of mifepristone in the plasma. […]
The sample can then be analyzed by reverse-phase high pressure liquid chromatography (HPLC). […]
The reverse-phase HPLC column can be a phenyl column maintained at 50° C. […] Following elution, the mobile phase can be nebulized using heated nitrogen in a Z-spray source/interface and the ionized compounds detected using a tandem quadrupole mass spectrometer. Mifepristone (molecular weight of 430 g/mol) can be detected at m/z 372.30. The internal standard mifepristone-d4 can be detected at m/z 376.30. The ratio of the mifepristone peak height to the peak height for the internal standard can then be calculated. […]

The subject of data set [2] is patients with major depressive disorder with psychotic features (PMD). Kind of data set: Phase III trials of CORLUX plus antidepressant vs. placebo: responders on BPRS Positive Symptom Subscale. The format is in vivo, human. From the text:
This example provides a randomized, double-blind, placebo-controlled, parallel group study of the safety and efficacy of three dose levels of CORLUXTM (Mifepristone) plus an antidepressant vs. placebo plus an antidepressant in the treatment of psychotic symptoms in patients with major depressive disorder with psychotic features (PMD). The study was a Phase III trial performed using several investigators at several different sites. […] Patients eligible for randomization were male or nonpregnant female outpatients, and inpatients, if clinically required, with a diagnosis of Major Depressive Disorder with Psychotic Features (DSM-IV 296.24 or 296.34), and a BPRS Positive Symptom subscale score of at least 12, a BPRS total score of at least 38, and a HAMD-24 score of at least 20. CORLUX was used as the test drug at 300 (1×300 mg tablet), 600 (2×300 mg tablet), and 1200 mg (4×300 mg tablet) once a day by mouth for the initial 7 days. […] The reference drug was a placebo (1, 2, or 4 tablets matching CORLUX 300 mg tablets) once a day by mouth for the initial 7 days. […] An antidepressant selected from a prescribed list was started simultaneously with the study drug, and continued to the end of the trial. BPRS and HAM-D assessments were performed at Screen and on Days 0, 7, 14, 28, 42, and 56, and at early termination when it occurred. Safety visits occurred at Days 21 and 35. The patients who are seen as outpatients made daily visits to the clinic setting to receive study medications for the first 7 days. If clinically necessary, a patient was treated as an inpatient. In addition to the selected antidepressant, continuing benzodiazepines was allowed up to specified dose levels, but antipsychotics, mood stabilizers and additional antidepressants were not allowed during the entire study. If the patient was at imminent risk to him/herself and/or others and therefore could not be adequately treated within the study (e.g., required ECT, new or re-hospitalization for PMD, antipsychotics or mood stabilizers, or a second antidepressant), the patient underwent an early termination visit on the day that rescue therapy was started and completed final efficacy evaluations. If early termination occurred prior to day 35, the patient returned for a safety follow up visit at day 35. […] The secondary endpoints were: (1) the proportion of responders at days 7 and 28; and (2) the mean change from baseline to day 56 in the HAM-D-24 total score. […] This example provides an international, double-blind, placebo-controlled study of the efficacy and safety of CORLUXTM (Mifepristone) vs. placebo in the treatment of psychotic symptoms in patients with Psychotic Major Depression (PMD). The study was a Phase III trial performed using several investigators at several different international sites. […] The number of patients was 220 evaluable subjects. […] CORLUX was administered in a 600 mg dose once a day by mouth for the initial 7 days (administered as two 300 mg tablets). Reference drug, dose, dosage regimen, route of administration: Matching placebo was administered once a day by mouth for the initial 7 days. […] After the 7-day dosing period, patients were evaluated at Days 14, 21, 28, 35, 42 and 56. An antidepressant was administered simultaneously with study drug, and continued to the end of the trial (Day 56). BPRS and HAMD-24 assessments were performed at Screen and on Days 0, 7, 14, 28, 42 and 56, or at early termination. A safety visit occurred on Days 21 and 35, and at study termination on Day 56. Subjects treated on an outpatient basis made daily visits to the clinic to receive study medication for the first 7 days. Subjects were treated on an inpatient basis for as long as deemed clinically necessary by the investigator. In addition to the selected antidepressant, concomitant benzodiazepine treatment was allowed up to specified dose levels. Antipsychotics, mood stabilizers and a second antidepressant were prohibited during the entire study. […]

For data set [3] the following is noted: species and route not given; cited from earlier work.

In the case of `CC#C[C@]1(O)CC[C@H]2[C@@H]3CCC4=CC(=O)CCC4=C3[C@@H](c3ccc(N(C)C)cc3)C[C@@]21C` [Corlux, 17-beta-hydroxy-11-beta-(4-dimethyl-aminophenyl)-17-alpha-(1-propynyl)-estra-4,9-dien-3-one], in data set [1], the “difference in blood serum levels from one patient to another” value is ≤ 800% and up to 800%. The “proportion of patients with at least a 50% reduction from baseline in BPRS PSS scores at days 7 and 56” value in data set [2] (1200 mg group (OC), all patients receiving the 1200 mg dose, FIG. 4) is recorded as 47%; in data set [2] (1200 mg group (OC), plasma levels <1357 ng/mL, FIG. 5), 31%; in data set [2] (1200 mg group (OC), plasma levels <1661 ng/mL, FIG. 6) it was 39%; in data set [2] (1200 mg group (OC), plasma levels >1357 ng/mL, FIG. 5), 54%; in data set [2] (1200 mg group (OC), plasma levels >1661 ng/mL, FIG. 6), 58%; in data set [2] (all studies (OC), all patients receiving Corlux, FIG. 1), 35%. Moreover, the “proportion of patients with at least a 50% reduction from baseline in BPRS PSS scores at days 7 and 56” value turned out to be 27% in data set [2] (all studies (OC), patients with plasma levels <1357 ng/mL, FIG. 2); 29% in data set [2] (all studies (OC), patients with plasma levels <1661 ng/mL, FIG. 3); 40% in data set [2] (all studies (OC), patients with plasma levels >1357 ng/mL, FIG. 2); 44% in data set [2] (all studies (OC), patients with plasma levels >1661 ng/mL, FIG. 3). In addition, the LD50 dose result in data set [3] was “about 1000 mg/kg”.
